Experimental findings from patent publication US20250140406A1, “CLASSIFYING TUMORS AND PREDICTING RESPONSIVENESS” (Oncocyte Corporation, priority 2022, published 2025) are described below.

The test system of test [1] is cancer cell lines classified IM, MSL, M. Put plainly: PRISM screen compound sensitivity correlated with IM, MSL and M subtype of cell lines (101 gene signature). The test is classed as cell-based. The note with it: for IM Corr test: correlation of PRISM compound sensitivity with IM subtype correlation; for M Corr test: correlation of PRISM compound sensitivity with M subtype correlation; for MSL Corr test: correlation of PRISM compound sensitivity with MSL subtype correlation; for TNBCType train: 101 gene signature.

Test [2] deals with cancer cell lines, DetermaIO classes. Put plainly: Association of PRISM compound sensitivity with DetermaIO (DTIO) cell line classes. It counts as cell-based.
[3] abbreviates: correlation of PRISM compound sensitivity with DTIO; test cell set.
Setting [4] is: correlation of PRISM compound sensitivity with DTIO; training cell set.
Setting [5] is: correlation of PRISM compound sensitivity with DTIO (DetermaIO); test cell set (188 cell lines).
Where [6] appears, read: correlation of PRISM compound sensitivity with DTIO (DetermaIO); training cell set (371 cell lines).
Where [7] appears, read: correlation of PRISM compound sensitivity with DTIO; test cell set (188 cell lines).
The mark [8] stands for this setting: correlation of PRISM compound sensitivity with DTIO; training cell set (371 cell lines).

SMILES strings stand for the structures.

On to `Cc1nc(-c2cccnc2)sc1C(=O)Nc1ccccc1-c1cn2c(CN3CCOCC3)csc2n1` [SRT2104], for which, in test [1] (test cell set), the “IM Corr test” value is recorded as −0.05657, the “M Corr test” value amounted to 0.06965 and the “MSL Corr test” value is −0.08685. For the same molecule, the TNBCType train entry in test [1] (subtype (IM, MSL or M) with which PRISM compound sensitivity is negatively correlated, training cell set) is given as “MSL”. The “DTIO Corr test” value in test [2] (setting [3]) is listed as −0.05596. In test [2] (setting [4]), the “DTIO Corr train” value is on record as −0.07665.

`C[C@H](C[C@H](N)C(=O)O)C(=O)O` [SYM-2081]: in test [1] (test cell set (188 cell lines)), the “IM Corr test” value is −0.08842, the “M Corr test” value turned out to be 0.01603 and the “MSL Corr test” value was determined as 0.05746. Also, the “DTIO Corr test” value in test [2] (setting [5]) is recorded as −0.1311. Besides, the “DTIO Corr train” value in test [2] (setting [6]) is listed as −0.0674.

`CC(C)(O)CC(=O)NCCn1ccc2ncnc(Nc3ccc(Oc4cccc(C(F)(F)F)c4)c(Cl)c3)c21` [TAK-285]: in test [1] (test cell set (188 cell lines)), the “IM Corr test” value is −0.1598, the “M Corr test” value was found to be 0.2221 and the “MSL Corr test” value was 0.1785. Further, the “DTIO Corr test” value in test [2] (setting [5]) was −0.06872. The “DTIO Corr train” value in test [2] (setting [6]) is recorded as −0.07158. For the same molecule, the “DTIO Corr test” value in test [2] (correlation of compound sensitivity with DTIO; test set) is −0.06872. The “DTIO Corr train” value in test [2] (correlation of compound sensitivity with DTIO; training set) is recorded as −0.07158.

Turning to `N#Cc1c(Oc2ccc(F)c(NC(=O)Cc3cccc(C(F)(F)F)c3)c2)ccc2nc(NC(=O)C3CC3)sc12` [TAK-632], the “IM Corr test” value in test [1] (test cell set) is on record as 0.3042. Besides, the “M Corr test” value in test [1] (test cell set) is −0.2709. The “MSL Corr test” value in test [1] (test cell set) came out at 0.04709. The “DTIO Corr test” value in test [2] (setting [3]) is recorded as 0.2089; in test [2] (correlation of compound sensitivity with DetermaIO (DTIO), test set) it was 0.2089; in test [2] (correlation of compound sensitivity with DetermaIO (DTIO); test set) it was 0.2089. The “DTIO Corr train” value in test [2] (setting [4]) is given as 0.08489; in test [2] (correlation of compound sensitivity with DetermaIO (DTIO), training set), 0.08489; in test [2] (correlation of compound sensitivity with DetermaIO (DTIO); training set), 0.08489.

For the molecule `Cc1cc(OCCCS(C)(=O)=O)cc(C)c1-c1cccc(COc2ccc3c(c2)OC[C@H]3CC(=O)O)c1` [TAK-875], in test [1] (test cell set (188 cell lines)), the “IM Corr test” value is reported as 0.00946, the “M Corr test” value is −0.00346 and the “MSL Corr test” value was −0.00217. Also, the TNBCType train entry in test [1] (subtype (IM, MSL or M) assigned to the compound by negative correlation of PRISM sensitivity with subtype, training cell set (371 cell lines)) is “MSL”. Moreover, the “DTIO Corr test” value in test [2] (setting [5]) is given as −0.03291. In addition, the “DTIO Corr train” value in test [2] (setting [6]) was determined as 0.03182.

As to `CCN1/C(=C/C(C)=O)Sc2ccc(OC)cc21` [TG-003], in test [1] (test cell set (188 cell lines)), the “IM Corr test” value is −0.1049, the “M Corr test” value is 0.03396 and the “MSL Corr test” value is −0.1032. Moreover, the TNBCType train result in test [1] (subtype (IM, MSL or M) the PRISM compound sensitivity is associated with, training cell set (371 cell lines)) is listed as “MSL”. For the same molecule, the “DTIO Corr test” value in test [2] (setting [7]) was −0.05387. The “DTIO Corr train” value in test [2] (setting [8]) is listed as −0.04255.

Take `Cc1cc(-c2cc(O)ccc2Cl)cc2nnc(Nc3ccc(OCCN4CCCC4)cc3)nc12` [TG-100572]: in test [1] (test cell set (188 cell lines)), the “IM Corr test” value is 0.01392, the “M Corr test” value was −0.05751 and the “MSL Corr test” value was −0.04088. The TNBCType train result in test [1] (subtype (IM, MSL or M) with which compound sensitivity is negatively correlated, training cell set (371 cell lines)) is on record as “MSL”. In test [2] (setting [3]), the “DTIO Corr test” value worked out at 0.03221. Also, the “DTIO Corr train” value in test [2] (setting [4]) worked out at 0.09048.

`Nc1cccc(-c2cc3c(Oc4cccc(O)c4)ncnc3[nH]2)c1` [TWS-119]: in test [1] (test cell set (188 cell lines)), the “IM Corr test” value is reported as −0.02666, the “M Corr test” value is reported as 0.00573 and the “MSL Corr test” value came out at 0.1335. Further, the “DTIO Corr test” value in test [2] (setting [7]) was −0.03964. For the same molecule, the “DTIO Corr train” value in test [2] (setting [8]) is −0.1606.

`CC(C)C(=O)c1ccc(O)c(O)c1` [U-0521]: in test [1] (test cell set (188 cell lines)), the “IM Corr test” value is given as −0.0012, the “M Corr test” value came out at 0.02749 and the “MSL Corr test” value was found to be 0.06256. In addition, the “DTIO Corr test” value in test [2] (setting [3]) is recorded as −0.01537. In addition, the “DTIO Corr train” value in test [2] (setting [4]) is recorded as −0.1115.

Consider `c1ccc(C(NCc2cccnc2)(c2ccccc2)c2ccccc2)cc1` [UCL-2077], for which, in test [1] (test cell set), the “IM Corr test” value is reported as −0.1051, the “M Corr test” value came out at 0.08781 and the “MSL Corr test” value stood at 0.1128. In test [2] (setting [3]), the “DTIO Corr test” value is −0.07511. For the same molecule, the “DTIO Corr train” value in test [2] (setting [4]) is −0.2006.

In the case of `CCCN(CCC)[C@@H]1CCc2c(OC)cccc2[C@@H]1C` [UH-232-(+)], in test [1] (test cell set (188 cell lines)), the “IM Corr test” value is −0.1006, the “M Corr test” value came to 0.08495 and the “MSL Corr test” value is recorded as 0.1169. Besides, the “DTIO Corr test” value in test [2] (setting [5]) is given as −0.1146. The “DTIO Corr train” value in test [2] (setting [6]) is on record as −0.08225.
